Results taken from patent publication US11898161B2, “Stem cell culture medium and method” (RIKEN, priority 2006, dated 2024).
Where “and” joins values, the source holds several entries; their conditions need not be identical. Identical values can stand only once. Residues, ends and D or L forms follow the SMILES beside them. *: point of attachment. Cbz = O=C(OCc1ccccc1)*; CH2F = FC*

How the values were obtained:
Type in all cases: cell-based
[1] = system: human ES cells (KhES-1); test: TUNEL apoptosis assay in suspension culture of dissociated human ES cells; conditions: after 2-day suspension culture; 80% in non-supplemented control
Protocol: (§1) Human ES cells subjected to maintenance culture were detached as small cell clumps (aggregates) from feeder cells in the same manner as in Example 1, and after removal of residual feeder cells, they were dissociated into single cells by trypsin digestion. After centrifugation, 2×10^5 cells were dissociated in serum-free culture medium for post differentiation induction (Watanabe et al., Nature Neuroscience 8, 288-296, 2005; supplemented with G-MEM, KSR and 2-mercaptoethanol, KSR was added at a concentration of 20%). The singly-dissociated human ES cells (1.0×10^5 cells/ml) were suspension-cultured in a non-cell adhesive 35 mm culture plate to form aggregates, and were cultured in the same culture medium for 2-6 days (SFEB method; See the above reference of Watanabe et al.). After 2-day culture, the percentage of apoptic cells was measured by TUNEL method (MEBSTAIN Apoptosis kit Direct, MBL). Treatment with ROCK inhibitor, Y-27632, was initiated at 1 hour before cell separation in the same manner as in Example 1, and the inhibitor was added to maintenance culture medium also after dissociation. For comparison, caspase inhibitor (ZVAD; 10 μM) and BDNF/NT-3/NT-4 (mixture of 50 ng/ml each), whose apoptosis suppressive effect has been reported, were used to conduct the experiment. In addition, the number of surviving cells on day 6 was counted in each case.

[2] = system: human embryonic stem cells (KhES-1); test: Cloning efficiency (colony formation) of dissociated human ES cells at low density on MEF feeder layer; conditions: for cloning efficiency compared to without the inhibitors: Fasudil/HA1077 10 μM, H-1152 200 nM, other kinase inhibitors at ranges of b100
Source text: The Human embryonic stem cells used for the experiments described herein were embryonic stem cells (KhES-1, KhES-2 and KhES-3) from human blastocysts established in the laboratory of Norio Nakatsuji, at the Institute for Frontier Medical Sciences, Kyoto University, which were distributed and used (mainly KhES-1) following the human embryonic stem cell guidelines of the Japanese government. In accordance with the method of the Nakatsuji laboratory (Suemori et al., Biochem Biophys Res Commun. 345, 926-32 (2006)), undifferentiated human embryonic stem cells were cultured on a plastic culture dish with mouse embryonic fibroblasts (inactivated with mitomycin, MEF) seeded as a feeder layer of cells. More specifically, the culture medium containing comprising KSR (Invitrogen/Gibco-BRL) at the final concentration of 20%, 1×NEAA (non-essential amino acids, Invitrogen/Gibco BRL), 2 mM L-giutaminic acid and 0.1 mM 2-mercaptoethanol in D-MEM F12 (Sigma D6421) was used, and the culturing was performed at 37° C., 5% CO2. Passaging was performed in every three or four days, and the embryonic stem cells were detached from the feeder layer using the dissociation liquid (containing 0.25% trypsin, 1 mg/mi collagenase IV solution, 1 mM CaCl2 in a phosphate buffered saline; all of which from Invitrogen/Gibco-BRL), followed by dissociated into small cell clumps (of about 50-100 cells) by pipetting, and then were seeded on the feeder layer which had been formed from seeding MEF on the day before.
The cell death inhibiting effect and the influence on cloning efficiency, of ROCK inhibitor, for the human embryonic stem cell culture after dissociation to single cells were examined as follows. […] The embryonic stem cell clumps ware dissociated to single cells by trypsin digestion (0.25% trypsin—EDTA, at 37° C. for 5 minutes), and seeded on a MEF feeder layer in 96 well culture plates at low density (500 cells/0.32 cm^2 in 0.15 ml of medium). The number of formed colonies was counted six days after culture in the maintenance culture medium. ROCK inhibitor Y-27632 was added at the concentration of 10 μM one hour prior to detaching the cells from the feeder layer, and the same amount was added to culture in the same amount after the detachment.
The effects of other ROCK inhibitors on the cloning efficiency of human embryonic stem cells in maintenance culture were evaluated using methods as described in example 1. The ROCK inhibitors, Fasudil/HA1077 (10 μM) and H-1152 (200 nM) were used. Also, inhibitors for other kinases were used for reference. The inhibitors for other kinases used were: cAMP-Rp (1-100 μM) and KT5720 (5-500 nM), which are protein kinase A inhibitors; bisindolylmaleimide (0.01-5 μM) and staurosporine (1-50 nM), which are protein kinase C inhibitors; PD98059 (0.5-50 μM), which is an MAPK inhibitor; LY294002 (1-50 μM), which is a PI3K inhibitor; and ML-7 (0.3-30 μM), which is an MLCK inhibitor.

[3] = system: human ES cells (KhES-1); test: Feeder-free culture of singly-dissociated human ES cells, colony formation; conditions: 10 μM Y-27632, feeder-free, MEF-conditioned medium, 500 cells/well; less than 0.2% untreated
Protocol: Specifically, according to the above literature, MEF cells cultured to confluency were lysed on a culture dish by deoxycholate method to leave only extracellular matrix. Singly-dissociated human ES cells (500 cells/well of a 96-well plate) were seeded onto them under Y-2763 treatment (10 μM or 0 μM) by the same method as for the routine culture on MEF cells (abovementioned Example). Conditioned medium, in which human ES cell maintenance medium and MEF were preliminarily cultured for one day, was used as a culture medium. The number of human ES cell colonies formed 5 days later were counted.

[4] = system: human ES cells (KhES-1); test: Number of surviving cells in suspension culture (SFEB) of dissociated human ES cells; conditions: 8% in non-supplemented group
Protocol: as §1

[5] = system: human ES cells; test: Maintenance culture of singly-dissociated human ES cells on MEF with different time courses of treatment (survival, growth, apoptosis); conditions: for population doubling time: days 2 to 6 after start of dissociation culture
Protocol: As for the maintenance culture of singly-dissociated human ES cells, in order to examine whether Y-27632 promotes cell survival at the early phase of dissociation culture, Y-27632 treatment time was divided into the following three groups to compare cell survival-promoting effects in maintenance culture. Group 1: Y-27632 treatment (10 μM, same below) was conducted as 1 hour-pretreatment and only for the first 12 hours of culture after dissociation in the process of dissociation culture of human ES cells. Group 2: Y-27632 treatment was conducted as 1 hour-pretreatment and for the entire culture period after dissociation in the process of dissociation culture of human ES cells. Group 3: No Y-27632 treatment was conducted. In these groups, surviving cells on day 3 per seeded cells (5×10^4 cells per one well of a 6-well plate) were counted in maintenance culture system on MEF layer. In the same experiment as in the above Example 7, the effect of Y-27632 on the cell growth for 6 days after the start of dissociation culture was examined in Groups 1 and 2 by extending the culture period to 6 days.

[6] = system: hES cells (KhES-3); conditions: human, 3 months
Protocol: FIGS. 4A-4L—Analysis of hES cells cultured in the presence of Y-27632 at low density. (FIGS. 4A-4C) Immunostaining of E-cadherin (FIG. 4A), Oct3/4 (FIG. 4B) and SSEA-4 (FIG. 4C) in Y-27632-treated hES cells (KhES-1) after extended passaging (30 times) at low density with Y-27632 treatment. Lower panels show DAPI staining (blue). (FIGS. 4D-4G) Histological analysis (hematoxylin-eosin staining, […] paraffin section) of teratoma tissues formed after subcapsular injection of hES cells (KhES-1) following extended passaging with Y-27632 into SCID mouse testes. (FIG. 4D) Cartilage, (FIG. 4E) neuroepithelium, (FIG. 4F) pigmented epithelium, and (g) gut-like mucosa with columnar epithelium. (FIG. 4H, FIG. 4I) After extended passaging involving low-density culture with Y-27632 treatment, efficient colony formation from dissociated hES cells (32.5±11%; KhES-1) remained dependent on Y-27632 (FIG. 4I) and few colonies were seen without it (FIG. 4H). (FIG. 4J) Dose-response relationship of two selective ROCK inhibitors (Y-27632, Fasudil; the cloning efficiency was 1.3±0.8% and 25.1±1.6% without and with 10 μM Fasudil; P<0.001, n=3) and two unrelated kinase inhibitors (cAMP-Rp, LY294002) on colony formation (KhES-1). Y-axis, ratios of promoting activity of colony formation to that with 10 μM Y-27632. […]

[7] = system: human ES cells; test: Differentiation induction into neuronal and brain precursor cells by SFEB method from singly-dissociated human ES cells
Source text: Human ES cells subjected to maintenance culture were detached from feeder cells as small cell clumps in the same manner as in Example 4, and after removal of residual feeder cells, they were dissociated into single cells by trypsin digestion. After centrifugation, cells were dissociated into culture medium for differentiation induction at 2×10^5 cells/mL, and were suspension-cultured using a non-cell adhesive culture plate to conduct serum-free culture (SFEB method) of suspended aggregates. In addition, Nodal inhibitor LeftyA (1 μg/ml, R&D), Wnt inhibitor Dkk1 (500 ng/ml, R&D) and BMP inhibitor BMPR1A-Fc (1.5 μg/ml, R&D) were added for the first 10 days after the start of culture for differentiation induction. After serum-free suspension culture for 16-35 days, the cell aggregates were fixed and immunostained by fluorescence antibody method. Treatment with the ROCK inhibitor, Y-27632, was initiated at 1 hour before cell separation in the same manner as in Example 1, and the inhibitor was added to maintenance culture medium for the first six days also after dissociation. For the differentiation into brain precursor cells, on day 25 of SFEB culture, floating cell aggregates were transferred into a poly-D-lysine/laminin/fibronectin-coated culture slide, and were cultured in an adhesion state for additional 10 days. In the adhesion culture, Neurobasal medium, supplemented with B27 (vitamin A-free) and 2 mM L-glutamine (both supplied by Gibco-BRL), was used as a culture medium.

[8] = system: human embryonic stem cells; test: Cloning efficiency at clonal density (one cell per well, 96 well plates) on MEF; conditions: 10 μM, under 1% without inhibitor
Protocol: The cell death inhibiting effect and the influence on cloning efficiency, of ROCK inhibitor, for the human embryonic stem cell culture after dissociation to single cells were examined as follows. […] The number of formed colonies was counted six days after culture in the maintenance culture medium. ROCK inhibitor Y-27632 was added at the concentration of 10 μM one hour prior to detaching the cells from the feeder layer, and the same amount was added to culture in the same amount after the detachment. Also, to evaluate whether promotion of cloning would be caused by the autocrine factor of human embryonic stem cell, a similar experiment was performed in 96 well culture plates at clonal density (one cell per well) of human embryonic stem cells, and the cloning efficiency was determined.

COC(=O)C[C@H](NC(=O)[C@H](C)NC(=O)[C@@H](NC(=O)OCc1ccccc1)C(C)C)C(=O)CF [ZVAD] (Cbz-Val-Ala-Asp(OMe)-CH2F) was tested, and the “TUNEL-positive (apoptotic) cells” value [1] was 72%.
With O=S(=O)(c1cccc2cnccc12)N1CCCNCC1 [Fasudil] the cloning efficiency ([2]; 10 μM Fasudil, KhES-1, 1.3±0.8% without, P<0.001, n=3) was 25.1±1.6% and the “cloning efficiency compared to without the inhibitors” value [2] was “significant enhanced cloning efficiencies”.
In the case of Cc1cncc2cccc(S(=O)(=O)N3CCCNC[C@@H]3C)c12 [H-1152], the “cloning efficiency compared to without the inhibitors” value [2] is reported as “significant enhanced cloning efficiencies”.
For C[C@@H](N)[C@H]1CC[C@H](C(=O)Nc2ccncc2)CC1 [Y-27632], the “cloning efficiency per seeded human ES cell, feeder-free” value [3] was 10.2% and 10.2±1.2%, the “surviving cells on day 6 (of plated cells)” value [4] was 70% and the “surviving cells on day 3 per seeded cells” value ([5]; Group 1: 10 μM, 1 hour pretreatment and first 12 hours after dissociation only) was 270%. For the same compound, the “number of cells on day 6 relative to initially seeded cells” value ([5]; Group 1: first 12 hours only) was 670%, the population doubling time ([5]; Group 1) was 49.0 h and the “surviving cells on day 3 per seeded cells” value ([5]; Group 2: 10 μM, 1 hour pretreatment and entire culture period) was 290%. For the same compound, the “number of cells on day 6 relative to initially seeded cells” value ([5]; Group 2: entire culture period) was 860%, the population doubling time ([5]; Group 2) was 41.5 h and the “percentage of apoptosis (active Caspase 3-positive cells)” value ([5]; both Groups 1 and 2, days 3 and 5) was “less than 1%”. The “cloning efficiency (ratio of formed colonies to initially seeded human embryonic stem cells)” value ([2]; 10 μM Y-27632, 500 cells/well on MEF, six days culture, 1% without inhibitor) was 27%, the “colony formation from dissociated hES cells after extended passaging” value ([2]; KhES-1 after extended passaging (low-density culture with Y-27632 treatment), few colonies without it) was 32.5±11% and the normal karyotype [6] was 100%. The “Oct3/4 positive cells (undifferentiated-state ES cell marker)” value ([7]; day 24 of differentiation culture) was “less than 10%”, the Pax6-positive cells ([7]; day 24 of differentiation culture, Y-27632 first six days, with LeftyA, Dkk1, BMPR1A-Fc) was “about 80%” and the “cell aggregates with many Bf1 positive cells (brain precursor marker)” value ([7]; day 35 of differentiation culture) was “about 60%”. For the same compound, the “TUNEL-positive (apoptotic) cells” value [1] was 9% and the cloning efficiency [8] was 25%.
